Calls of active or inactive are those of the source. The calls are words filed in the database; no cut-off is given here.
Legend:
Huh-7 [1] = experiment: Hepatoprotective activity against CCL4-induced toxicity in human HuH7 cells assessed as increase in GSH level at 10 to 1000 ug/ml incubated for 1 hr prior to CCL4-challenge measured after 2 hrs relative to control; type: functional, cell-based
Huh-7 [2] = experiment: Hepatoprotective activity against CCL4-induced toxicity in human HuH7 cells assessed as decrease in aspartate aminotransferase level at 10 to 1000 ug/ml incubated for 1 hr prior to CCL4-challenge measured after 2 hrs relative to control; type: functional, cell-based
Huh-7 [3] = experiment: Hepatoprotective activity against CCL4-induced toxicity in human HuH7 cells assessed as decrease in alanine transaminase level at 10 to 1000 ug/ml incubated for 1 hr prior to CCL4-challenge measured after 2 hrs relative to control; type: functional, cell-based
Huh-7 [4] = experiment: Hepatoprotective activity against CCL4-induced toxicity in human HuH7 cells assessed as increase in superoxide dismutase activity at 10 to 1000 ug/ml incubated for 1 hr prior to CCL4-challenge measured after 2 hrs relative to control; type: functional, cell-based
Huh-7 [5] = experiment: Hepatoprotective activity against CCL4-induced toxicity in human HuH7 cells assessed as aspartate aminotransferase level at 10 ug/ml incubated for 1 hr prior to CCL4-challenge measured after 2 hrs (reference value: 38.9 +/- 7.9 U/ml); type: functional
Huh-7 [6] = experiment: Hepatoprotective activity against CCL4-induced toxicity in human HuH7 cells assessed as alanine transaminase level at 100 ug/ml incubated for 1 hr prior to CCL4-challenge measured after 2 hrs (reference value: 21.5 +/- 3.7 U/ml); type: functional
Huh-7 [7] = experiment: Hepatoprotective activity against CCL4-induced toxicity in human HuH7 cells assessed as superoxide dismutase activity at 100 ug/ml incubated for 1 hr prior to CCL4-challenge measured after 2 hrs (reference value: 168.4 +/- 24.9 U/ml); type: functional

O=c1c(OC2O[C@H](CO)[C@@H](O)[C@H](O)[C@H]2O)c(-c2cc(O)c(O)c(O)c2)oc2cc(O)cc(O)c12 (stereo not given in full) [MYRICETIN 3-O-GLUCOSIDE]
Activity (Huh-7 [1]): Active
Activity (Huh-7 [2]): Active
Activity (Huh-7 [3]): Active
Activity (Huh-7 [4]): Active
Activity (Huh-7 [5]): 5.8 U/ml

O=c1c(O[C@@H]2O[C@H](CO)[C@@H](O)[C@H](O)[C@H]2O)c(-c2ccc(O)c(O)c2)oc2cc(O)cc(O)c12
Activity (Huh-7 [1]): Active
Activity (Huh-7 [2]): Active
Activity (Huh-7 [3]): Active
Activity (Huh-7 [4]): Active

COc1ccc(-c2oc3cc(O[C@@H]4O[C@@H](C)[C@H](OC(=O)/C=C/c5ccc(O)cc5)[C@@H](O)[C@H]4O)cc(O)c3c(=O)c2O[C@@H]2O[C@H](CO)[C@@H](O)[C@H](O[C@@H]3O[C@@H](C)[C@H](O)[C@@H](O)[C@H]3O)[C@H]2OC(=O)/C=C/c2ccc(O)cc2)cc1
Activity (Huh-7 [1]): Active
Activity (Huh-7 [2]): Active
Activity (Huh-7 [3]): Active
Activity (Huh-7 [6]): 18.6 U/ml
Activity (Huh-7 [4]): Active
Activity (Huh-7 [7]): 264.6 U/ml

Reference: ChEMBL document CHEMBL3046204, “Protective effect of Centaurea pallescens Del. against CCl4-induced injury on a human hepatoma cell line (Huh7)” (2013)
